The test system of experiment [1] is sperm nuclei. As to the kind of experiment: DNA replication of sperm nuclei in Xenopus S-phase egg extract (32P-dCTP incorporation, TCA precipitation). The conditions noted are these: for replication rate of sperm chromatin: 300 μM TSA and 300 μM CTPB. The format is biochemical. Here is the method:
(§1) 5 μl samples were taken at different times and DNA replication was monitored by TCA precipitation of ^32PαdCTP incorporated into DNA.
Sperm chromatin was incubated in S-phase extract in the presence of 50 μg/ml ICRF193 at the beginning of the reaction or after 45 min (during the elongation phase). DNA replication was monitored by TCA precipitation of the replicated DNA.
(§2) Demembranated sperm nuclei were prepared and used as described in (Menut et al., 1999), and erythrocyte nuclei were purified from Xenopus blood as described. Nuclei were incubated in S-phase (1,000 nuclei/μl), or M-phase (CSF) extracts that were activated with 1 mM CaCl2. DNA synthesis was measured by ^32P-dCTP incorporation, as previously described (Menut et al., 1999).

Experiment [2] has as its system erythrocyte nuclei. In words: DNA replication of erythrocyte nuclei in Xenopus egg extracts (32P-dCTP incorporation, TCA precipitation). The experiment is classed as biochemical. Particulars: for replication rate of erythrocyte nuclei: permeabilized erythrocyte nuclei in S-phase extract, 300 μM TSA, 600 μM CTPB or 300 μM AA. Here is the method:
FIG. 1B: Permeabilized erythrocyte nuclei were incubated in S-phase or M-phase extract for 45 minutes before CaCl2 activation to trigger S phase. 5 μl samples were taken at different times. DNA replication was monitored by TCA precipitation of ^32PαdCTP incorporated into DNA and expressed as the percentage replicated DNA compared to the total input DNA. Sperm nuclei incubated in S-phase extract were used as a control.
as §1
FIG. 5A: Erythrocyte chromatin was incubated either in M-phase extract and immediately driven into S phase by Ca^++, or in M-phase extract for 45 min before induction into S phase by Ca^++ in the absence or presence of ICRF. Control sperm chromatin in M-phase extracts induced to enter S phase by calcium is shown. The amount of nuclei was 1000 nuclei/μl egg extract for sperm nuclei, and 500 nuclei/μl egg extract for erythrocyte nuclei to keep the chromatin concentration constant.
as §2

Experiment [3] concerns erythrocyte or sperm nuclei. In words: Chromosome condensation of nuclei in mitotic egg extract (Hoechst staining). The experiment is classed as biochemical, Xenopus. The conditions noted are these: erythrocyte or sperm nuclei in M-phase extract; 50 μg/ml. Here is the method:
FIG. 5B: Demembranated erythrocyte nuclei or sperm nuclei were incubated in a mitotic egg extract in the presence or absence of 50 μg/ml of the topoisomerase II inhibitor ICRF193. DNA was stained with Hoechst dye for chromosome formation analysis.

For experiment [4], the system named is ORC2. As to the kind of experiment: ORC2 recruitment to chromatin (chromatin purification, anti ORC2 immunoblot). The format is biochemical, Xenopus. Here is the method:
FIG. 5C: Chromatin was purified and proteins analyzed by SDS gel electrophoresis as described in Material and Methods. Erythrocyte nuclei (500 nuclei/μl egg extract) or sperm nuclei (1000 nuclei/μl egg extract) were incubated in a mitotic egg extract, induced to enter S phase with calcium, in the presence (+) or absence (−) of ICRF 193. Chromatin was purified 30 min after calcium activation and analyzed by immunoblot with a Xenopus anti ORC2 antibody.
50 μl samples were diluted with 5 volumes of extract buffer (XB: 100 mM KCl, 0.1 mM CaCl2, 1 mM MgCl2, 10 mM KOH-Hepes pH 7.7, 50 mM sucrose) and pelleted by centrifugation at 7500 g for 12 min through a 0.7 M sucrose cushion. Nuclear pellets were resuspended in XB, 0.3% Triton X-100 and incubated for 5 min on ice. After a further 5,000 g centrifugation for 5 min, chromatin pellets were recovered and adjusted in Laemmli Buffer.
On the technique in general: A western blot detects proteins with antibodies after separation by electrophoresis.

Experiment [5] deals with chromatin loop domains. As to the kind of experiment: DNA loop size by maximum fluorescent halo technique (MFHT). The format is biochemical, Xenopus. Here is the method:
FIG. 4D: Nuclei were recovered on coverslips and submitted to the maximum fluorescent halo technique (MFHT) for DNA loop size measurements (Material and Methods).
FIG. 7C: Sperm nuclei collected at different times during replication or following M-phase were recovered on coverslips and submitted to MFHT for DNA loop size measurements. Entry into mitosis was induced by incubating post-replicate embryo nuclei in M-phase extract in the presence or absence of ICRF.
Maximum Fluorescent Halo Radius (MFHR) were determined by treating non-fixed nuclei on coverslips. They were first dipped for 1 min in ice cold NP40 buffer (0.5% NP40, 10 mM MgCl2, 0.5 mM CaCl2, 50 mM Hepes pH 7.8) and then sequentially dipped for 30 s in a solution containing 0.2 mM MgCl2, 10 mM Tris (pH 7.4) with 0.5 M, 1 M, 1.5 M, 2 M NaCl. They were then incubated in 100 μg/ml ethidium bromide, 2 M NaCl and exposed for 1 min to short wave UV light before observation by fluorescence (Buongiorno-Nardelli et al., 1982). Halo and matrix diameters were estimated using a micrometrics slide. DNA loop size was calculated taking into account that the loop size is 2 fold the MFHR. The length of linear DNA was calculated using the correspondence of 1 μm to 2.3 kbp.

Setting [6] is: sperm nuclei in S-phase extract.
Setting [7] is: inhibitor present during mitotic remodeling in M-phase extract, chromatin purified 30 min after calcium activation.

For the molecule `CCCCCCCCCCCCCCCc1cccc(O)c1C(=O)O` [AA, anacardic acid], the “replication of sperm nuclei” value in experiment [1] (sperm nuclei in S-phase extract, 300 μM AA) is “strongly inhibited”. Besides, the “sensitivity of replication of erythrocyte nuclei remodeled in mitosis” value in experiment [2] (45 min in M-phase extract, then S-phase extract containing 300 μM AA) is recorded as “as sensitive as sperm nuclei”. The “replication rate of erythrocyte nuclei” value in experiment [2] is on record as “did not further inhibit”.

As for `CCCCCCCCCCCCCCCc1cccc(OCC)c1C(=O)Nc1ccc(Cl)c(C(F)(F)F)c1` [CTPB], the “reversal of AA inhibition of sperm nuclei replication” value in experiment [1] (S-phase extract, prior incubation of 600 μM CTPB, 300 μM AA) is listed as “reversed”. Moreover, the “replication rate of sperm chromatin” value in experiment [1] (setting [6]) is on record as “no significant effect”. In experiment [2], the “replication rate of erythrocyte nuclei” value is “failed to significantly affect”.

Consider `CC(/C=C/C(=O)NO)=C\[C@@H](C)C(=O)c1ccc(N(C)C)cc1` [TSA, trichostatin], for which the “replication rate of sperm chromatin” value in experiment [1] (setting [6]) is given as “no significant effect”. In addition, the “replication rate of erythrocyte nuclei” value in experiment [2] is “failed to significantly affect”.

With ICRF 193, in experiment [1] (S-phase extract, 50 μg/ml at the beginning of the reaction or after 45 min), the “DNA replication of sperm chromatin” value is “does not interfere with DNA replication”. Moreover, in experiment [2] (45 min in M-Phase extract containing ICRF 193 before S phase induction), the “rate of replication of erythrocyte nuclei” value was “very low rate of replication”. For the same molecule, in experiment [3], the chromosome condensation entry is “prevented chromosome condensation”. For the same molecule, in experiment [4] (inhibition of loop size remodeling, post-replicative embryonic nuclei and erythrocyte nuclei), the ORC recruitment entry was “decreases”. In experiment [4] (setting [7]), the “recruitment of ORC2 onto erythrocyte chromatin for the subsequent S-phase” value is on record as “dramatically reduced” and the “recruitment of ORC2 onto sperm chromatin for the subsequent S-phase” value is “not”. Moreover, the “mitotic remodeling (loop size reduction) of post-replicative nuclei” value in experiment [5] (post-replicative embryonic nuclei in M-phase extract) is on record as “blocked”. For the same molecule, the “S-phase dependent increase in loop size” value in experiment [5] (sperm nuclei during replication in S phase, data not shown) is recorded as “prevented”.

For the origin of these results see US8993330B2, “Composition for a mitotic remodeling of chromosomes” (Centre National de la Recherche Scientifique, priority 2005, dated 2015).
